Data taken from the kinase profiling compilation of Christmann-Franck et al. (2016).

Key:
Test in all cases: KINOMEscan competition binding
Settings in all cases: compound 10.0 µM
BRSK2 (human) = BRSK2 (human) (UniProt Q8IWQ3)
SRMS (human) = SRMS (human) (UniProt Q9H3Y6)
CAMK1D (human) = CAMK1D (human) (UniProt Q8IU85)
CSNK2A1 (human) = CSNK2A1 (human) (UniProt P68400)
MAPK9 (human) = MAPK9 (human) (UniProt P45984)
EPHB3 (human) = EPHB3 (human) (UniProt P54753)
TEC (human) = TEC (human) (UniProt P42680)
BRSK1 (human) = BRSK1 (human) (UniProt Q8TDC3)
CDC42BPB (human) = CDC42BPB (human) (UniProt Q9Y5S2)
BLK (human) = BLK (human) (UniProt P51451)
SLK (human) = SLK (human) (UniProt Q9H2G2)
RIOK1 (human) = RIOK1 (human) (UniProt Q9BRS2)
Chain of RIOK1 (human) (Q9BRS2 whole entry, looked up): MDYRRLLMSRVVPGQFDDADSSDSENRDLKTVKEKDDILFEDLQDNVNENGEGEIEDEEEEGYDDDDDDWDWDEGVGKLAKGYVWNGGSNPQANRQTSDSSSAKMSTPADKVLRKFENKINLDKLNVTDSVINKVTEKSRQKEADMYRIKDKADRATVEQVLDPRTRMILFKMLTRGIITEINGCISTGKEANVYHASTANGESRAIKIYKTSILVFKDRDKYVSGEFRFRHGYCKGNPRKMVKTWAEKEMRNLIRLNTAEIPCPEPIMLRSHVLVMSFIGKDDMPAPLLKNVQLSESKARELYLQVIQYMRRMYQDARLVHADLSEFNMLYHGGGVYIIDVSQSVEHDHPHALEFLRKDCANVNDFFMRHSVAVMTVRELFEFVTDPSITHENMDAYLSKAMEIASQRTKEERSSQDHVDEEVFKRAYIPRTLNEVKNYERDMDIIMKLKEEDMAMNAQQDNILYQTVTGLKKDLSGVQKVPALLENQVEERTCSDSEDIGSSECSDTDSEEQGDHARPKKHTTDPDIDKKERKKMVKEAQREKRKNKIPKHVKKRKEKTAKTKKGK

ZAP70 (human) = ZAP70 (human) (UniProt P43403)
MAPK6 (human) = MAPK6 (human) (UniProt Q16659)
PHKG1 (human) = PHKG1 (human) (UniProt Q16816)
RIPK1 (human) = RIPK1 (human) (UniProt Q13546)
PRKCQ (human) = PRKCQ (human) (UniProt Q04759)
STK25 (human) = STK25 (human) (UniProt O00506)
FLT1 (human) = FLT1 (human) (UniProt P17948)
Chain of FLT1 (human) (P17948 whole entry, looked up): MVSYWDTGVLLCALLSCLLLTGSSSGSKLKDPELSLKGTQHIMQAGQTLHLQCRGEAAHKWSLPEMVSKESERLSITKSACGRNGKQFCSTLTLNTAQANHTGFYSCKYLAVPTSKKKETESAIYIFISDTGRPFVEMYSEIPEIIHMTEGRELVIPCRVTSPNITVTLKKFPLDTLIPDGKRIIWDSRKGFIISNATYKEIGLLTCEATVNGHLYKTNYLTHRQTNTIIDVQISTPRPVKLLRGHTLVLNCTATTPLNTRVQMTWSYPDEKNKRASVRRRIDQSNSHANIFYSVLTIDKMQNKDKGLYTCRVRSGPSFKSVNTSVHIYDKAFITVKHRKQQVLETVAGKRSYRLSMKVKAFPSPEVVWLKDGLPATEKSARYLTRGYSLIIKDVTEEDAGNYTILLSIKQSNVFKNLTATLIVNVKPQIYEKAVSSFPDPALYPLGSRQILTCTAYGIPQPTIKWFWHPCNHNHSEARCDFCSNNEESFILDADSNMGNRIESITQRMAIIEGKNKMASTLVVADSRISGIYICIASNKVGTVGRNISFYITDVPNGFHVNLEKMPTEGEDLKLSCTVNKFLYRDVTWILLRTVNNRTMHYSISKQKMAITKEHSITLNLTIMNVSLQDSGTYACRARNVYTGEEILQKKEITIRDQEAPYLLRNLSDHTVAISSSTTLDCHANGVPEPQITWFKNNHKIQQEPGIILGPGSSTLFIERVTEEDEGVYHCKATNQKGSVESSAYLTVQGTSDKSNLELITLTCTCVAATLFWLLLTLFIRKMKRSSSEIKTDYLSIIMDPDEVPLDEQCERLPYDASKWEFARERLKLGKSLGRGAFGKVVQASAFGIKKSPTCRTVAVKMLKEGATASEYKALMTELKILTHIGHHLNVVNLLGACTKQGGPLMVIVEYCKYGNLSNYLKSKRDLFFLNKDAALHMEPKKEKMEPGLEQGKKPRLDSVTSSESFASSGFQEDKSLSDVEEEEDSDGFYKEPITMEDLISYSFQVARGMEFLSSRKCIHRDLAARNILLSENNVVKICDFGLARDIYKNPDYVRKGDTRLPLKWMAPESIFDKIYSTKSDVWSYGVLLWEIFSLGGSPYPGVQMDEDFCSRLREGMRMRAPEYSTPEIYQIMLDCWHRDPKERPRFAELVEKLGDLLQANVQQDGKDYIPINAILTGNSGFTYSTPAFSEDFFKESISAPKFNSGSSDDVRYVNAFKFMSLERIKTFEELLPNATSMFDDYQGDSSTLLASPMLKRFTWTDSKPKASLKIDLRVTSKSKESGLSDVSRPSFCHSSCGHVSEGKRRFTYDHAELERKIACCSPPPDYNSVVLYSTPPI

CSNK1G2 (human) = CSNK1G2 (human) (UniProt P78368)
STK33 (human) = STK33 (human) (UniProt Q9BYT3)
Chain of STK33 (human) (Q9BYT3 whole entry, looked up): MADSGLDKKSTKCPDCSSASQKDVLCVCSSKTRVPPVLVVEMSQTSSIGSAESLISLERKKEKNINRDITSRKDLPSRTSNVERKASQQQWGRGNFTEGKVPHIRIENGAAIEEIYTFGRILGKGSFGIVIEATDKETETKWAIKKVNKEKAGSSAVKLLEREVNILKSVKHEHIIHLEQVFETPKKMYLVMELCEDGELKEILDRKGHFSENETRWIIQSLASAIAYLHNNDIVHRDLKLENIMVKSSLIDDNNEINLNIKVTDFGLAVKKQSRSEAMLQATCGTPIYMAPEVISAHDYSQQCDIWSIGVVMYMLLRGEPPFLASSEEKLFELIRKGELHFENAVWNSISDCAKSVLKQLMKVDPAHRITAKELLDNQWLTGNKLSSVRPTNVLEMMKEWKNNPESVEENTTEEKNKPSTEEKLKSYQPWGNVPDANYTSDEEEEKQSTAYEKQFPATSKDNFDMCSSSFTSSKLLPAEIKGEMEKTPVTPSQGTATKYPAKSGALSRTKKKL

PRKAA1 (human) = PRKAA1 (human) (UniProt Q13131)
RPS6KA2 KD1 (human) = RPS6KA2 KD1 (human) (UniProt Q15349)
WEE1 (human) = WEE1 (human) (UniProt P30291)
NEK9 (human) = NEK9 (human) (UniProt Q8TD19)
SRC (human) = SRC (human) (UniProt P12931)
EPHA2 (human) = EPHA2 (human) (UniProt P29317)
NEK7 (human) = NEK7 (human) (UniProt Q8TDX7)
EPHB1 (human) = EPHB1 (human) (UniProt P54762)
Chain of EPHB1 (human) (P54762 whole entry, looked up): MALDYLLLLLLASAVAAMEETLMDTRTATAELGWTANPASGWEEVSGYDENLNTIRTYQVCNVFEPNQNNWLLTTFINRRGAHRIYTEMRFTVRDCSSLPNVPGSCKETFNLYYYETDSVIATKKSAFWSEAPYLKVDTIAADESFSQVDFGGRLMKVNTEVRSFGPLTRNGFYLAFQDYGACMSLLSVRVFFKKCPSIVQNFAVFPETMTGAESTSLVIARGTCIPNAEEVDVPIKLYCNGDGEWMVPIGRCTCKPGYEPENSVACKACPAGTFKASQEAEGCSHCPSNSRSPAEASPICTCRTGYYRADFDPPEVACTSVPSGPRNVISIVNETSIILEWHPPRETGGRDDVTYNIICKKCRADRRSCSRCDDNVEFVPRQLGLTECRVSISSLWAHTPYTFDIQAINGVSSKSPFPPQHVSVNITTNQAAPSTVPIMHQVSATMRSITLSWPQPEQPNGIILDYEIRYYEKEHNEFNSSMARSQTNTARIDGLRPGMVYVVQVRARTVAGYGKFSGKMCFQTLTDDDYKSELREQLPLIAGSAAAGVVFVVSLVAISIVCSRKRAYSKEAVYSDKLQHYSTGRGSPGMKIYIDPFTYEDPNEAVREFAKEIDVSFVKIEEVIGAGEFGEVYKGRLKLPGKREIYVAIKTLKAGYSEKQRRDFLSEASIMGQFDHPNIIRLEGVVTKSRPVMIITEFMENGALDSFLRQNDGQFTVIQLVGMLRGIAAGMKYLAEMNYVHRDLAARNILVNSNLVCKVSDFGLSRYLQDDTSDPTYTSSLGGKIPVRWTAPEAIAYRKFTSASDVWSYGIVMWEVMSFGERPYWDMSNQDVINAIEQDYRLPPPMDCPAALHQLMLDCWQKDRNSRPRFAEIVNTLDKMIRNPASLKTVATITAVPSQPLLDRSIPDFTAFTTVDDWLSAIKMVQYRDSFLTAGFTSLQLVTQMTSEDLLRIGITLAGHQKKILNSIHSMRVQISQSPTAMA

CLK1 (human) = CLK1 (human) (UniProt P49759)
Chain of CLK1 (human) (P49759 whole entry, looked up): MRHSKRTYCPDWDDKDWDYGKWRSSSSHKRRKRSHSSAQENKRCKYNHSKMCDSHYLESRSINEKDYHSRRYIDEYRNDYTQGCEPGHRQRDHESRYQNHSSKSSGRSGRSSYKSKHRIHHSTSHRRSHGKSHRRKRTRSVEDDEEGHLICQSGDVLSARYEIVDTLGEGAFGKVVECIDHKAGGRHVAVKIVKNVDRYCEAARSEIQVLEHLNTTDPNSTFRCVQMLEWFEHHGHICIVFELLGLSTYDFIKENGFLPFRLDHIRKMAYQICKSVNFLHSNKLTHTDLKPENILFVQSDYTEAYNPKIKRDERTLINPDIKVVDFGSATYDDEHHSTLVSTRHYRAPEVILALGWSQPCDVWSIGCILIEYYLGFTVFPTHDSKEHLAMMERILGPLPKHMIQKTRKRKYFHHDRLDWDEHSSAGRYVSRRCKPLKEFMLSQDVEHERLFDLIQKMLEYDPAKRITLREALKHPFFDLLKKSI

ITK (human) = ITK (human) (UniProt Q08881)
Chain of ITK (human) (Q08881 whole entry, looked up): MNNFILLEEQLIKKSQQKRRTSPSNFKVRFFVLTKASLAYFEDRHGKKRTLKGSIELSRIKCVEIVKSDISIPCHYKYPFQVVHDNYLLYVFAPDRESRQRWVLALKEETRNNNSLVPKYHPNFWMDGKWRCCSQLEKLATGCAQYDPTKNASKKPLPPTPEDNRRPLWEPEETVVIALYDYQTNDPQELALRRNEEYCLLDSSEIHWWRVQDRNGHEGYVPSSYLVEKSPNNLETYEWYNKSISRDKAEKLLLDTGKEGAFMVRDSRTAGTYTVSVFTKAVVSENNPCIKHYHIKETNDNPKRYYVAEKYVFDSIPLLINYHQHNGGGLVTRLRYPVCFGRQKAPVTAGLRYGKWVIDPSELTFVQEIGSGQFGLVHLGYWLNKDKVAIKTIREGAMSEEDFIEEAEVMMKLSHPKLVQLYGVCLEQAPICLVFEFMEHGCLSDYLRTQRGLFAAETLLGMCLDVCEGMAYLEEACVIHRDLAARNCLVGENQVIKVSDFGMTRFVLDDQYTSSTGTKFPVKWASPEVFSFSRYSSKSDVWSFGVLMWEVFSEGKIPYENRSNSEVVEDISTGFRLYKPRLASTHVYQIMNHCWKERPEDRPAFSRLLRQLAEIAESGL

CDK15 (human) = CDK15 (human) (UniProt Q96Q40)
DCLK2 (human) = DCLK2 (human) (UniProt Q8N568)
ULK1 (human) = ULK1 (human) (UniProt O75385)
RIOK2 (human) = RIOK2 (human) (UniProt Q9BVS4)
BMPR1B (human) = BMPR1B (human) (UniProt O00238)
EPHA7 (human) = EPHA7 (human) (UniProt Q15375)
MAPK3 (human) = MAPK3 (human) (UniProt P27361)
ULK3 (human) = ULK3 (human) (UniProt Q6PHR2)
MELK (human) = MELK (human) (UniProt Q14680)

Chain of SRMS (human) (Q9H3Y6 whole entry, looked up): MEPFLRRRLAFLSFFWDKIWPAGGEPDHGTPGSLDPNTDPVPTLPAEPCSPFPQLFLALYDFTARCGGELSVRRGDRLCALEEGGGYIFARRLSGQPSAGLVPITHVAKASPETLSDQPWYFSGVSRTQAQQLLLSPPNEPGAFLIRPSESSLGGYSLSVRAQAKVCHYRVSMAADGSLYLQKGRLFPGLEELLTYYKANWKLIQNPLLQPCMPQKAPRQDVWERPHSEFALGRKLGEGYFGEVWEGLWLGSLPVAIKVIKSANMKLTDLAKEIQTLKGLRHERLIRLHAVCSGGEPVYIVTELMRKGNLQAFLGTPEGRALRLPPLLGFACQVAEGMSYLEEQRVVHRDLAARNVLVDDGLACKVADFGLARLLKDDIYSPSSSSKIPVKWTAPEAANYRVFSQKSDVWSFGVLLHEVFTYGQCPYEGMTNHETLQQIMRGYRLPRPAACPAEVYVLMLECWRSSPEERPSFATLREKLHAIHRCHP

SMILES | kinase still bound, per cent of control (BRSK2 (human)) | kinase still bound, per cent of control (SRMS (human)) | kinase still bound, per cent of control (CAMK1D (human)) | kinase still bound, per cent of control (CSNK2A1 (human)) | kinase still bound, per cent of control (MAPK9 (human)) | kinase still bound, per cent of control (EPHB3 (human)) | kinase still bound, per cent of control (TEC (human)) | kinase still bound, per cent of control (BRSK1 (human)) | kinase still bound, per cent of control (CDC42BPB (human)) | kinase still bound, per cent of control (BLK (human)) | kinase still bound, per cent of control (SLK (human)) | kinase still bound, per cent of control (RIOK1 (human)) | kinase still bound, per cent of control (ZAP70 (human)) | kinase still bound, per cent of control (MAPK6 (human)) | kinase still bound, per cent of control (PHKG1 (human)) | kinase still bound, per cent of control (RIPK1 (human)) | kinase still bound, per cent of control (PRKCQ (human)) | kinase still bound, per cent of control (STK25 (human)) | kinase still bound, per cent of control (FLT1 (human)) | kinase still bound, per cent of control (CSNK1G2 (human)) | also measured
CCCS(=O)(=O)Nc1ccc(F)c(C(=O)c2c[nH]c3ncc(-c4ccc(Cl)cc4)cc23)c1F | 100% | 0.05% | 100% | 100% | 50% | 100% | 100% | 100% | 79% | 2.2% | 1.4% | 100% | 90% | 100% | 100% | 63% | 43% | 100% | 43% | 88% | kinase still bound, per cent of control (STK33 (human)): 94%; kinase still bound, per cent of control (PRKAA1 (human)): 89%; kinase still bound, per cent of control (RPS6KA2 KD1 (human)): 39%; kinase still bound, per cent of control (WEE1 (human)): 100%; kinase still bound, per cent of control (NEK9 (human)): 98%; kinase still bound, per cent of control (SRC (human)): 3.4%; kinase still bound, per cent of control (EPHA2 (human)): 99%; kinase still bound, per cent of control (NEK7 (human)): 100%; kinase still bound, per cent of control (EPHB1 (human)): 100%; kinase still bound, per cent of control (CLK1 (human)): 70%; kinase still bound, per cent of control (ITK (human)): 100%; kinase still bound, per cent of control (CDK15 (human)): 96%; kinase still bound, per cent of control (DCLK2 (human)): 100%; kinase still bound, per cent of control (ULK1 (human)): 93%; kinase still bound, per cent of control (RIOK2 (human)): 100%; kinase still bound, per cent of control (BMPR1B (human)): 67%; kinase still bound, per cent of control (EPHA7 (human)): 100%; kinase still bound, per cent of control (MAPK3 (human)): 100%; kinase still bound, per cent of control (ULK3 (human)): 46%; kinase still bound, per cent of control (MELK (human)): 100%
Cn1c(=O)n(-c2ccc(C(C)(C)C#N)cc2)c2c3cc(-c4cnc5ccccc5c4)ccc3ncc21 | 100% | 100% | 100% | 100% | 100% | 100% | 100% | 100% | 100% | 100% | 100% | 100% | 100% | 100% | 100% | 100% | 100% | 100% | 100% | 100% | kinase still bound, per cent of control (STK33 (human)): 100%; kinase still bound, per cent of control (PRKAA1 (human)): 100%; kinase still bound, per cent of control (RPS6KA2 KD1 (human)): 100%; kinase still bound, per cent of control (WEE1 (human)): 100%; kinase still bound, per cent of control (NEK9 (human)): 100%; kinase still bound, per cent of control (SRC (human)): 100%; kinase still bound, per cent of control (EPHA2 (human)): 100%; kinase still bound, per cent of control (NEK7 (human)): 100%; kinase still bound, per cent of control (EPHB1 (human)): 100%; kinase still bound, per cent of control (CLK1 (human)): 23%; kinase still bound, per cent of control (ITK (human)): 100%; kinase still bound, per cent of control (CDK15 (human)): 100%; kinase still bound, per cent of control (DCLK2 (human)): 100%; kinase still bound, per cent of control (ULK1 (human)): 100%; kinase still bound, per cent of control (RIOK2 (human)): 100%; kinase still bound, per cent of control (BMPR1B (human)): 100%; kinase still bound, per cent of control (EPHA7 (human)): 100%; kinase still bound, per cent of control (MAPK3 (human)): 100%; kinase still bound, per cent of control (ULK3 (human)): 100%; kinase still bound, per cent of control (MELK (human)): 100%
O=C(NC1CC1)c1cccc(-c2ccc3c(NC(=O)C4CC4)n[nH]c3c2)c1 | 74% | 93% | 100% | 62% | 50% | 100% | 95% | 64% | 76% | 100% | 100% | 10% | 90% | 78% | 76% | 0.05% | 100% | 76% | 100% | 94% | kinase still bound, per cent of control (STK33 (human)): 100%; kinase still bound, per cent of control (PRKAA1 (human)): 60%; kinase still bound, per cent of control (RPS6KA2 KD1 (human)): 96%; kinase still bound, per cent of control (WEE1 (human)): 84%; kinase still bound, per cent of control (NEK9 (human)): 100%; kinase still bound, per cent of control (SRC (human)): 100%; kinase still bound, per cent of control (EPHA2 (human)): 100%; kinase still bound, per cent of control (NEK7 (human)): 100%; kinase still bound, per cent of control (EPHB1 (human)): 100%; kinase still bound, per cent of control (CLK1 (human)): 77%; kinase still bound, per cent of control (ITK (human)): 100%; kinase still bound, per cent of control (CDK15 (human)): 84%; kinase still bound, per cent of control (DCLK2 (human)): 100%; kinase still bound, per cent of control (ULK1 (human)): 100%; kinase still bound, per cent of control (RIOK2 (human)): 78%; kinase still bound, per cent of control (BMPR1B (human)): 91%; kinase still bound, per cent of control (EPHA7 (human)): 96%; kinase still bound, per cent of control (MAPK3 (human)): 95%; kinase still bound, per cent of control (ULK3 (human)): 13%; kinase still bound, per cent of control (MELK (human)): 64%
